Measured values reported in US20040002445A1, “Enhancement of endogenous gonadotropin production” (priority 2002, published 2004).

How the values were obtained:
plasma testosterone = assay: Phase 1 study of oral leuprolide acetate for 28 days, hormonal response (plasma testosterone); assay type: in vivo, human; conditions: for Testosterone levels: healthy males
Description: Twenty subjects were assigned to each dosing group.

serum LH = conditions: two stimulations with 25 mcg each on 3 consecutive days, 12 normally menstruating females; cited from earlier work
plasma LH and FSH = conditions: intermittent, but not continuous, administration; cited from earlier work

**Q.** Which results are given for `CCNC(=O)[C@@H]1CCCN1C(=O)[C@H](CCCNC(=N)N)NC(=O)[C@H](CC(C)C)NC(=O)[C@@H](CC(C)C)NC(=O)[C@H](Cc1ccc(O)cc1)NC(=O)[C@H](CO)NC(=O)[C@H](Cc1c[nH]c2ccccc12)NC(=O)[C@H](Cc1c[nH]cn1)NC(=O)[C@@H]1CCC(=O)N1` [leuprolide acetate]?
**A.** Testosterone levels relative to baseline (plasma testosterone; Group A, 5 mg q.d. oral): failed to raise the levels of testosterone above the baseline; Testosterone levels (plasma testosterone; Group A, 5 mg q.d. oral, Day 2, baseline 453.25): 452.45 ng/dL; Testosterone levels (plasma testosterone; Group A, 5 mg q.d. oral, Day 3, baseline 453.25): 406.25 ng/dL; Testosterone levels (plasma testosterone; Group A, 5 mg q.d. oral, Day 4, baseline 453.25): 384.70 ng/dL; Testosterone levels (plasma testosterone; Group A, 5 mg q.d. oral, Day 5, baseline 453.25): 430.55 ng/dL; Testosterone levels (plasma testosterone; Group A, 5 mg q.d. oral, Day 6, baseline 453.25): 434.55 ng/dL; Testosterone levels (plasma testosterone; Group A, 5 mg q.d. oral, Day 7, baseline 453.25): 413.75 ng/dL; Testosterone levels (plasma testosterone; Group A, 5 mg q.d. oral, Day 8, baseline 453.25): 405.85 ng/dL; Testosterone levels (plasma testosterone; Group A, 5 mg q.d. oral, Day 9, baseline 453.25): 358.8 ng/dL; Testosterone levels (plasma testosterone; Group A, 5 mg q.d. oral, Day 10, baseline 453.25): 369.80 ng/dL; Testosterone levels relative to baseline (plasma testosterone; Group B, 5 mg b.i.d. oral): higher than the baseline until Day 7; Testosterone levels (plasma testosterone; Group B, 5 mg b.i.d. oral, Day 2, baseline 485.00): 563.5 ng/dL; Testosterone levels (plasma testosterone; Group B, 5 mg b.i.d. oral, Day 3, baseline 485.00): 541.35 ng/dL; Testosterone levels (plasma testosterone; Group B, 5 mg b.i.d. oral, Day 4, baseline 485.00): 527.40 ng/dL; Testosterone levels (plasma testosterone; Group B, 5 mg b.i.d. oral, Day 5, baseline 485.00): 502.85 ng/dL; Testosterone levels (plasma testosterone; Group B, 5 mg b.i.d. oral, Day 6, baseline 485.00): 493.25 ng/dL; Testosterone levels (plasma testosterone; Group B, 5 mg b.i.d. oral, Day 7, baseline 485.00): 484.75 ng/dL; Testosterone levels (plasma testosterone; Group B, 5 mg b.i.d. oral, Day 8, baseline 485.00): 449.10 ng/dL; Testosterone levels (plasma testosterone; Group B, 5 mg b.i.d. oral, Day 9, baseline 485.00): 427.65 ng/dL; Testosterone levels (plasma testosterone; Group B, 5 mg b.i.d. oral, Day 10, baseline 485.00): 428.95 ng/dL; Elevation of plasma testosterone, comparison of dose groups (plasma testosterone; Group B, 5 mg b.i.d., compared with Group C, 10 mg q.d.): more significant elevation of plasma testosterone; Testosterone levels relative to baseline (plasma testosterone; Group C, 10 mg q.d. oral): higher than the baseline until Day 6; Testosterone levels (plasma testosterone; Group C, 10 mg q.d. oral, Day 2, baseline 458.85): 495.85 ng/dL; Testosterone levels (plasma testosterone; Group C, 10 mg q.d. oral, Day 3, baseline 458.85): 501.00 ng/dL; Testosterone levels (plasma testosterone; Group C, 10 mg q.d. oral, Day 4, baseline 458.85): 492.20 ng/dL; Testosterone levels (plasma testosterone; Group C, 10 mg q.d. oral, Day 5, baseline 458.85): 463.90 ng/dL; Testosterone levels (plasma testosterone; Group C, 10 mg q.d. oral, Day 6, baseline 458.85): 412.65 ng/dL; Testosterone levels (plasma testosterone; Group C, 10 mg q.d. oral, Day 7, baseline 458.85): 435.50 ng/dL; Testosterone levels (plasma testosterone; Group C, 10 mg q.d. oral, Day 8, baseline 458.85): 409.00 ng/dL; Testosterone levels (plasma testosterone; Group C, 10 mg q.d. oral, Day 9, baseline 458.85): 428.05 ng/dL; Testosterone levels (plasma testosterone; Group C, 10 mg q.d. oral, Day 10, baseline 458.85): 405.95 ng/dL

**Q.** What does the source list for “gonadotropin releasing hormone (QHWSYGLRPG; Gonadoliberin-1; UniProt P01148 24-33, looked up) [GnRH, hormone that is secreted by the hypothalamus in a pulsating fashion, also known as LH-RH]”?
**A.** Serum LH levels (serum LH): Increases in serum LH levels; Plasma LH and FSH levels (plasma LH and FSH): increases in plasma LH and FSH levels
